The values below come from patent publication US11123355B2, “Antiviral benzyl-amine phosphodiamide compounds” (Merck Sharp & Dohme Corp., priority 2016, dated 2021).

pIC50: −log10 of the molar value. Like-named read-outs stand apart in the source and are kept apart here.

The nature of data set [1]: Prodrug Stability Assay in Bio-Relevant Media (FaSSIF with Pancreatin). The class given is in vitro ADME. The conditions noted are these: 0.5 mg/mL Pancreatin in FaSSIF, 37° C.; HPLC peak area of prodrug at 5 h divided by that at 0 h. As for the experimental part:
Prodrug Stability Assay in Bio-Relevant Media
The following assay was employed to evaluate the stability of the prodrugs in simulated gastrointestinal tract conditions. Preparation of fasted state simulated intestinal fluid (FaSSIF) using Phares SIF Powder was carried out according to protocols from Phare Drug Delivery AG (Baselland, Switzerland). For sample preparation, 10 μL stock solutions (10 mM) of prodrug substance in DMSO was added to 990 μL of 0.5 mg/mL Pancreatin solution (Fisher CAS #8049-47-6) in FaSSIF. Two samples were prepared for each compound. If the sample was a clear solution, it was directly analyzed by HPLC. If the sample was not clear, the sample was diluted with 100% MeCN, maintained at 37° C. and observed 5 h later. If the sample was clear, HPLC analysis was directly performed. If the sample was still not clear, the sample was diluted with 100% ACN and assayed by HPLC. All the samples were vortexed for 3 min and observed before injection. For the diluted samples, the area is multiplied by a dilution factor when the data is analyzed. The analysis was carried out with an Agilent 1100 series HPLC with autosampler. The column was a Poroshell 120 EC-C18, 4.6×50 mm, 2.7 μm. The flow rate was 1.8 mL/min, and the injection volume was 5 or 10 μL. UV detection was in the range 210-400 nm. The mobile phase consisted of solvent A (water plus 10 mM tetrabutylammonium bromide) and solvent B (acetonitrile) with a gradient of: 90% solvent A at 0 min, changing to 95% solvent B over 6 min, maintaining for 1.5 min, then reverting to 90% solvent A over 1.6 min. The HPLC peak area of the prodrug at 5 h was divided by the HPLC peak area of the prodrug at 0 h, to generate the % claimed parent ratio, which is summarized in Table 2 for gastrointestinal (GI) Tract stability.

A further data set concerns HIV-1 (H9/IIB strain). In words: Multiple Round HIV-1 Infection Assay (Viking Assay) in MT4-GFP cells. The data set is classed as cell-based. The settings on record: inhibition of reproductive ratio R0. An outline of the steps: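 Inhibition of the reproductive ratio R0, derived from the rise in GFP-positive cells between ~48 h and ~72 h post-infection, was fitted by 4-parameter regression to give IC50. Cells infected at MOI ~0.01 were exposed to compound (typically 8.4 μM–0.42 nM final) in 10% or 50% normal human serum.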

Where [2] appears, read: Human immunodeficiency virus 1, MT4-GFP cells infected with HIV-1, 10% normal human serum, read-out: Viking, IC50 (10% NHS).
The mark [3] stands for this setting: Human immunodeficiency virus 1, MT4-GFP cells infected with HIV-1, 50% normal human serum, read-out: Viking, IC50 (50% NHS).
Setting [4] is: MT4-GFP cells infected with HIV-1, 10% normal human serum, read-out: Viking, IC50 (10% NHS).
The mark [5] stands for this setting: MT4-GFP cells infected with HIV-1, 50% normal human serum, read-out: Viking, IC50 (50% NHS).

Regarding `CCCOC(=O)C(C)(C)NP(=O)(CO[C@H](C)Cn1cnc2c(N)ncnc21)N[C@H](C)c1ccc(Cl)cc1` (single isomer, unassigned) [Example 1B], the “GI Tract stability (%)” value in data set [1] is listed as 98.7%. In addition, the pIC50 is 8.33 in the data set with HIV-1 (H9/IIB strain) (setting [2]) and 7.44 with HIV-1 (H9/IIB strain) (setting [3]).

Regarding `CCCOC(=O)C(C)(C)NP(=O)(CO[C@H](C)Cn1cnc2c(N)ncnc21)N[C@H](C)c1ccc(OC(F)(F)F)cc1` (single isomer, unassigned) [Example 3B], the “GI Tract stability (%)” value in data set [1] is 99.4%. The pIC50 is 8.74 with HIV-1 (H9/IIB strain) (setting [2]) and 8.07 with HIV-1 (H9/IIB strain) (setting [3]).

Regarding `CCCOC(=O)C(C)(C)NP(=O)(CO[C@H](C)Cn1cnc2c(N)ncnc21)N[C@H](c1ccc(OC(F)(F)F)cc1)C(F)(F)F` (stereo partly drawn) [Example 4A], in data set [1], the “GI Tract stability (%)” value was 95.8%. Besides, the values for the negative logarithm of the IC50 (pIC50) in the data set with HIV-1 (H9/IIB strain) (setting [4]) and in the data set with HIV-1 (H9/IIB strain) (setting [5]) were 8.46 and 7.54, respectively.

For the compound `CCCOC(=O)C(C)(C)N[P@@](=O)(CO[C@H](C)Cn1cnc2c(N)ncnc21)NCc1ccc(OC(F)(F)F)cc1` [Example 7A, propyl 2-(((R)-((((R)-1-(6-amino-9H-purin-9-yl)propan-2-yl)oxy)methyl)((4-(trifluoromethoxy)benzyl)amino)phos-phoryl)amino)-2-methylpropanoate and propyl 2-(((S)-((((R)-1-(6-amino-9H-purin-9-yl)propan-2-yl)oxy)methyl)((4-(trifluoromethoxy)benzyl)amino)phos-phoryl)amino)-2-methylpropanoate], the “GI Tract stability (%)” value in data set [1] is recorded as 96.0%. Further, the pIC50 is 8.35 in the data set with HIV-1 (H9/IIB strain) (setting [4]) and 7.57 in the data set on HIV-1 (H9/IIB strain) (setting [5]).

`CCCOC(=O)C(C)(C)N[P@@](=O)(CO[C@H](C)Cn1cnc2c(N)ncnc21)N[C@H](C)c1cccc(F)c1` [Example 9B, propyl 2-(((R)-((((R)-1-(6-amino-9H-purin-9-yl)propan-2-yl)oxy)methyl)(((R)-1-(3-fluorophenyl)ethyl)amino)phosphoryl)ami-no)-2-methylpropanoate and propyl 2-(((S)-((((R)-1-(6-amino-9H-purin-9-yl)propan-2-yl)oxy)methyl)(((R)-1-(3-fluorophenyl)ethyl)amino)phosphoryl)ami-no)-2-methylpropanoate]: in data set [1], the “GI Tract stability (%)” value was 90.9%. Further, the pIC50 in the data set with HIV-1 (H9/IIB strain) (setting [4]) is 7.92; in the data set with HIV-1 (H9/IIB strain) (setting [5]), 6.89.

For `CCCOC(=O)C(C)(C)NP(=O)(CO[C@H](C)Cn1cnc2c(N)ncnc21)N[C@H](C)c1ccc(C(F)(F)F)cc1` (stereo partly drawn) [Example 12B, propyl 2-(((R)-((((R)-1-(6-amino-9H-purin-9-yl)propan-2-yl)oxy)methyl)(((R)-1-(4-(trifluoromethyl)phenyl)ethyl)amino)phos-phoryl)amino)-2-methylpropanoate and propyl 2-(((S)-((((R)-1-(6-amino-9H-purin-9-yl)propan-2-yl)oxy)methyl)(((R)-1-(4-(trifluoromethyl)phenyl)ethyl)amino)phos-phoryl)amino)-2-methylpropanoate], the “GI Tract stability (%)” value in data set [1] came to 99.1%. In addition, the pIC50 in the data set with HIV-1 (H9/IIB strain) (setting [4]) is 8.66; with HIV-1 (H9/IIB strain) (setting [5]), 7.96.

`CCCOC(=O)C(C)(C)NP(=O)(CO[C@H](C)Cn1cnc2c(N)ncnc21)N[C@@H](C)c1ccc(OC(F)(F)F)cc1` (stereo partly drawn) [Example 19A, propyl 2-(((R)-((((R)-1-(6-amino-9H-purin-9-yl)propan-2-yl)oxy)methyl)(((S)-1-(4-(trifluoromethoxy)phenyl)ethyl)amino)phos-phoryl)amino)-2-methylpropanoate and propyl 2-(((S)-((((R)-1-(6-amino-9H-purin-9-yl)propan-2-yl)oxy)methyl)(((S)-1-(4-(trifluoromethoxy)phenyl)ethyl)amino)phos-phoryl)amino)-2-methylpropanoate]: the “GI Tract stability (%)” value in data set [1] was determined as 98.1%. The pIC50 is 8.57 in the data set on HIV-1 (H9/IIB strain) (setting [4]) and 7.92 with HIV-1 (H9/IIB strain) (setting [5]).

Consider `CCCOC(=O)C(C)(C)NP(=O)(CO[C@H](C)Cn1cnc2c(N)ncnc21)N[C@H](C)c1ccc(OC(F)(F)F)cc1C` (stereo partly drawn) [Example 21B, Propyl 2-(((R)-((((R)-1-(6-amino-9H-purin-9-yl)propan-2-yl)oxy)methyl)(((R)-1-(2-methyl-4-(trifluoromethoxy)phenyl)ethyl)amino)phos-phoryl)amino)-2-methylpropanoate and propyl 2-(((S)-((((R)-1-(6-amino-9H-purin-9-yl)propan-2-yl)oxy)methyl)(((R)-1-(2-methyl-4-(trifluoromethoxy)phenyl)ethyl)amino)phos-phoryl)amino)-2-methylpropanoate], for which, in data set [1], the “GI Tract stability (%)” value worked out at 71.5%. Also, the pIC50 in the data set on HIV-1 (H9/IIB strain) (setting [4]) is 9.00; in the data set on HIV-1 (H9/IIB strain) (setting [5]), 8.24.

Regarding “propyl 2-(((R)-((((R)-1-(6-amino-9H-purin- 9-yl)propan-2-yl)oxy)methyl)(((R)-1-(4- cyanophenyl)-2,2,2- trifluoroethyl)amino)phosphoryl)amino)-2- methylpropanoate and propyl 2-(((S)-((((R)-1-(6-amino-9H-purin- 9-yl)propan-2-yl)oxy)methyl)(((R)-1-(4- cyanophenyl)-2,2,2- trifluoroethyl)amino)phosphoryl)amino)-2- methylpropanoate [Example 23B]”, the pIC50 with HIV-1 (H9/IIB strain) (setting [4]) is 7.33; in the data set with HIV-1 (H9/IIB strain) (setting [5]) it was 6.85.

“propyl 2-(((R)-((((R)-1-(6-amino-9H-purin- 9-yl)propan-2-yl)oxy)methyl)(((R)-1-(p- tolyl)ethyl)amino)phosphoryl)amino)-2- methylpropanoate and propyl 2-(((S)-((((R)-1-(6-amino-9H-purin- 9-yl)propan-2-yl)oxy)methyl)(((R)-1-(p- tolyl)ethyl)amino)phosphoryl)amino)-2- methylpropanoate [Example 16A]”: the figures for the negative logarithm of the IC50 (pIC50) with HIV-1 (H9/IIB strain) (setting [4]) and in the data set on HIV-1 (H9/IIB strain) (setting [5]) were 7.08 and 6.36, respectively.

“propyl 2-(((R)-((((R)-1-(6-amino-9H-purin- 9-yl)propan-2-yl)oxy)methyl)(((R)-1-(p- tolyl)ethyl)amino)phosphoryl)amino)-2- methylpropanoate and propyl 2-(((S)-((((R)-1-(6-amino-9H-purin- 9-yl)propan-2-yl)oxy)methyl)(((R)-1-(p- tolyl)ethyl)amino)phosphoryl)amino)-2- methylpropanoate [Example 16B]”: the results for the pIC50 in the data set with HIV-1 (H9/IIB strain) (setting [4]) and in the data set with HIV-1 (H9/IIB strain) (setting [5]) were 8.34 and 7.57, respectively.

As to “propyl 2-(((R)-((((R)-1-(6-amino-9H-purin- 9-yl)propan-2-yl)oxy)methyl)(((R)-2,2,2- trifluoro-1-(p- tolyl)ethyl)amino)phosphoryl)amino)-2- methylpropanoate and propyl 2-(((S)-((((R)-1-(6-amino-9H-purin- 9-yl)propan-2-yl)oxy)methyl)(((R)-2,2,2- trifluoro-1-(p- tolyl)ethyl)amino)phosphoryl)amino)-2- methylpropanoate [Example 26B]”, the negative logarithm of the IC50 (pIC50) in the data set on HIV-1 (H9/IIB strain) (setting [4]) is 7.47; in the data set on HIV-1 (H9/IIB strain) (setting [5]), 6.70.

In the case of “propyl 2-(((R)-((((R)-1-(6-amino-9H-purin- 9-yl)propan-2-yl)oxy)methyl)(((S)-1-(p- tolyl)ethyl)amino)phosphoryl)amino)-2- methylpropanoate and propyl 2-(((S)-((((R)-1-(6-amino-9H-purin- 9-yl)propan-2-yl)oxy)methyl)(((S)-1-(p- tolyl)ethyl)amino)phosphoryl)amino)-2- methylpropanoate [Example 18A]”, the figures for the pIC50 with HIV-1 (H9/IIB strain) (setting [4]) and in the data set on HIV-1 (H9/IIB strain) (setting [5]) were 7.89 and 6.85, respectively.

Regarding “propyl 2-(((R)-((((R)-1-(6-amino-9H-purin- 9-yl)propan-2-yl)oxy)methyl)(((S)-1-(p- tolyl)ethyl)amino)phosphoryl)amino)-2- methylpropanoate and propyl 2-(((S)-((((R)-1-(6-amino-9H-purin- 9-yl)propan-2-yl)oxy)methyl)(((S)-1-(p- tolyl)ethyl)amino)phosphoryl)amino)-2- methylpropanoate [Example 18B]”, the pIC50 was 7.43 in the data set on HIV-1 (H9/IIB strain) (setting [4]) and 6.28 in the data set with HIV-1 (H9/IIB strain) (setting [5]).

In general, pIC50 refers to the IC50 on a negative log10 scale, so that one unit is a factor of ten.
